Here are results for three molecules from patent US20260144257A1, “VITAMIN B3 BASED PRESERVATIVE COMPOSITIONS” (SHARON PERSONAL CARE LTD., priority 2022, published 2026).

The assay deals with tested bacteria and fungi (E. coli, S. aureus, P. aeruginosa, C. albicans, A. brasiliensis). The experiment in a line: Challenge test of preservative efficacy in formulations (ISO 11930). It is filed as cell-based. From the text: Escherichia coli (ATCC 8739), Staphylococcus aureus (ATCC 6538), P. aeruginosa (ATCC 9027), Candida albicans (ATCC 10231), and Aspergillus brasiliensis (ATCC 16404) were obtained from ATCC and cultured according to the manufacturer's instructions. These microorganisms are routinely used for minimum inhibitory concentration (MIC), checkerboards and challenge tests according to the US and EU recommendations for the efficacy of preservatives in the cosmetic industry. Bacterial strains were maintained in tryptic soy agar (TSA) (Hy-labs, Rehovot, Israel), while yeast and mold strains were maintained in sabouraud dextrose agar (SDA) (Hy-labs, Israel), supplemented with oxytetracycline at a concentration of 1% (Hy-labs, Israel). Preservative efficacy assays (challenge tests) were performed in order to enumerate the number of microorganisms present in a formulation containing the preservative system, while the diluent solution was supplemented with neutralizers containing 4% Tween 20 and 0.5% lecithin (Hy-labs, Israel). Challenge tests of preservative efficacy in formulations were performed according to the ISO 11930 regulations. The total count for any prior contamination was performed for all formulations. Specifically, in order to evaluate the antimicrobial and antifungal activity of the preservative system, samples were inoculated separately with each microorganism at a final concentration of 10^6 cfu/mL for bacteria and 10^5 cfu/mL for yeast and mold. Samples were incubated in the dark at 22° C. for 28 days. […] To enumerate the microorganisms at each time point, serial dilutions were made up to 10-4, and 1 mL were seeded in duplicates onto a petri dish with the appropriate media TSA/SDA (bacteria vs. yeast and mold, respectively), using the pour plate method. Plates were incubated at 32° C. for three days for bacteria while yeast and mold were incubated at 22° C. for five days until the enumeration of viable microorganisms. [table]

With polylysine, the preservative activity result (standalone treatment, 0.1%, non-ionic cream) was “didn't show any markable preservative activity”.
For `CCCCCCC(O)CO` (stereo not drawn) [CG, Caprylyl Glycol], where the note is “sole application (without niacinamide)”, the preservative activity result is “didn't show any markable preservative activity”.
As for `NC(=O)c1cccnc1` [niacinamide], the “antimicrobial activity of the single agent” value (alone at the above concentrations (about 2.8% niacinamide or about 0.2% cationic surfactant)) is recorded as “only limited antimicrobial activity”.
